Reference: US5466688A, “Pyrido[3,4-B]indole derivatives as serotonergic agents” (American Home Products Corporation, priority 1994, dated 1995)

How the values were obtained:
[1] = target: T1, 5-HT1A serotonin receptor (Rattus norvegicus, UniProt P19327); test: 5-HT1A receptor binding: displacement of [3H] 8-OHDPAT; conditions: procedure of Hall et al.
T1 construct: following the procedure of Hall et al., J. Neurochem; 44 1685 (1985); from tissue
T1 sequence (P19327 1-422): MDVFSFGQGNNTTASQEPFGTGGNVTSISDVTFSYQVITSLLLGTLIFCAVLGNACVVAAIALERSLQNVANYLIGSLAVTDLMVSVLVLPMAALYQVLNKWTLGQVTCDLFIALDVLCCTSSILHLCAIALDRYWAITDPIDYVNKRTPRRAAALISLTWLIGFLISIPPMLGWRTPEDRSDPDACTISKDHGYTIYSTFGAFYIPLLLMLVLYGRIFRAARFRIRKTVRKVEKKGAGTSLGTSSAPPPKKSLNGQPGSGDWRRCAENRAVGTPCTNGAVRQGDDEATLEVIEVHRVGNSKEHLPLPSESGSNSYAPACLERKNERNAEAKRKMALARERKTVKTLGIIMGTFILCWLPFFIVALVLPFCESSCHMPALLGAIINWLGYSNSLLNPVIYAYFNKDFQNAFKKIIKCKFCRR
Method: High affinity for the serotonin 5-HT1A receptor for the compounds of this invention was established by testing them in accordance with the standard pharmacological test procedure in which the compound's ability to displace [^3 H] 8-OHDPAT (dipropylaminotetralin) from the 5-HT1A serotonin receptor was determined following the procedure of Hall et al., J. Neurochem. 44 1685 (1985). […] The anxiolytic activity of buspirone is believed to be, at least partially, due to its 5-HT1A receptor affinity [VanderMaelen et al., Eur. J. Pharmacol. 1986, 129 (123-130)].

[2] = target: T1, 5-HT1A serotonin receptor; conditions: buspirone, literature (VanderMaelen et al. 1986); cited from earlier work

| Compound | IC50 [1] | affinity for the 5-HT1A serotonin receptor (in words) [2] |
| --- | --- | --- |
| CN1c2ccccc2[C@@H]2CCN(CCC(C(=O)N3CCCCCC3)c3ccccc3)C[C@H]21 (relative stereo) [Example 3, 1-Azepan-1-yl-4-((trans)-9-methyl-1,3,4,4a,9,9a-hexahydro-2H-pyrido[3,4-b]indol-2-yl)-2-phenyl-butan-1-one] | 0.0371 µM |  |
| O=C(C(CCN1CC[C@H]2c3ccccc3N[C@H]2C1)c1ccccc1)N1CCCCCC1 (relative stereo) [Example 4, 1-Azepan-1-yl-4-((cis)-1,3,4,4a,9,9a-hexahydro-2H-pyrido[3,4-b]indol-2-yl)-2-phenyl-butan-1-one] | 0.0674 µM |  |
| O=C(C(CCN1CCc2c([nH]c3ccccc23)C1)c1ccccc1)N1CCCCCC1 (centres unmarked) [Example 1, 1-Azepan-1-yl-2-phenyl-4-(1,3,4,9-tetrahydro-2H-pyrido[3.4-b]indol-2-yl]-butan-1-one] | 0.0309 µM |  |
| Cn1c2c(c3ccccc31)CCN(CCC(C(=O)N1CCCCCC1)c1ccccc1)C2 (centres unmarked) [Example 2, 1-Azepan-1-yl-4-(9-methyl-1,3,4,9-tetrahydro-2H-pyrido[3.4-b]-indol-2-yl]-2-phenyl-butan-1-one] | 0.0333 µM |  |
| O=C1CC2(CCCC2)CC(=O)N1CCCCN1CCN(c2ncccn2)CC1 [buspirone] |  | potent affinity |
